Laboratory results reported in patent US4632990A, “Ergoline carboxamides” (Farmitalia Carlo Erba S.p.A., priority 1982, dated 1986).
Where two headings read alike, the source gives them in different places.

Test system: egg-nidation in rats
Assay: Nidation inhibition in rats (egg-nidation inhibitory action, indirect measure of anti-prolactin activity)
Type: in vivo, Sprague Dowley rats
Details: Rattus norvegicus, po, read-out: Nidation inhibition in rats, ED50
Protocol: Pregnant Sprague Dowley rats weighing 200-250 g were used. The compounds to be tested, dissolved in diluted mineral acids, were administered orally to groups from six to eight rats on day 5 of pregnancy. The animals were sacrificed on day 14 and the uteri were examined. The absence of implantation sites was taken as the criterion of anti-prolactin activity. Several doses were tested for the ED50 evaluation. As reference standard Bromocryptine was used.

[1] = pregnant rats, given on day 5 of pregnancy, absence of implantation sites on day 14

Compound	ED50 [mg/kg]	ED50 [1] [mg/kg]
CC(C)C[C@H]1C(=O)N2CCC[C@H]2[C@]2(O)O[C@](NC(=O)[C@@H]3C=C4c5cccc6[nH]c(Br)c(c56)C[C@H]4N(C)C3)(C(C)C)C(=O)N12 [2-bromo-α-ergocryptine, reference compound]	5.7	
Cc1cc(NC(=O)[C@@H]2C[C@@H]3c4cccc5[nH]cc(c45)C[C@H]3N(C)C2)nc(C)n1 [Example 1, N-(2', 6'-dimethyl-4'-pyrimidyl)-6-methylergoline-8β-carboxamide]		1.8
Cc1cc(NC(=O)[C@@H]2C[C@@H]3c4cccc5[nH]c(C)c(c45)C[C@H]3N(C)C2)nc(C)n1 [Example 4, N-(2',6'-dimethyl-4'-pyrimidyl)-2,6-dimethylergoline-8β-carboxamide]		0.5 to 1
CCCN1C[C@H](C(=O)Nc2cc(C)nc(C)n2)C[C@@H]2c3cccc4[nH]cc(c34)C[C@H]21 [Example 5, N-(2',6'-dimethyl-4'-pyrimidyl)-6-propylergoline-8β-carboxamide]		0.3
